Laboratory results from US10048562B2, “Electrophoretic fluid” (Merck Patent GmbH, priority 2012, dated 2018).

Assay: Saturation of dye in decane (solubility)
Format: physicochemical
Conditions: saturated solution in decane

Saturation wt % in decane [wt %] | SMILES
3.72 | CCCCCCCCCCCCCCc1ccc(/N=N/c2c(C)cc(=O)n(CC(CC)CCCC)c2O)cc1 (stereo not drawn) [Dye 6, (E)-1-(2-ethylhexyl)-6-hydroxy-4-methyl-5-((4-tetradecylphenyl)diazenyl)pyridin-2(1H)-one]
0.19 | CCCCCCCCN(CCCCCCCC)c1ccc(/N=N/c2snc(C)c2C#N)c(NC(C)=O)c1 [Dye 4, N-(2-((4-Cyano-3-methylisothiazol-5-yl)diazenyl)-5-(dioctylamino)phenyl)acetamide]
9.95 | CCCCc1ccc(/N=N/c2ccc(N(CCCC)CCCC)cc2)cc1 [Dye 7]
0.003 | CCCCCCCCCCCCCCCCCCN(CCCCCCCCCCCCCCCCCC)c1cc(NC(C)=O)c(/N=N/c2c(C#N)cc([N+](=O)[O-])cc2C#N)cc1OC [Dye 1]
10.50 | CCCCCCCCN(CCCCCCCC)c1ccc(/N=N/c2ccc([N+](=O)[O-])cc2)c(C)c1 [Dye 8, (E)-3-Methyl-4-((4-nitrophenyl)diazenyl)-N,N-dioctylaniline]
1.03 | CCCCCCCCCCCCCCc1ccc(/N=N/c2c(C)c(C#N)c(=O)n(CC(CC)CCCC)c2O)cc1 (stereo not drawn) [Dye 5, (E)-1-(2-Ethylhexyl)-6-hydroxy-4-methyl-2-oxo-5-((4-tetradecylphenyl)diazenyl)-1,2-dihydropyridine-3-carbonitrile]
